± gives the expanded uncertainty stated by the source.
Assay: xn = mol fraction of the nth substance listed
Details: 100 kPa, Liquid; for viscosity: Falling or rolling sphere viscometry; for mass density: Vibrating tube method

CC(C)C1CCCCC1 [(1-methylethyl)cyclohexane] + OCC1CC1
Details | mass density [kg/m3] | viscosity [mPa·s]
293.15 K, x1 = 0.0996 | 891.76 ± 1.1 | –
293.15 K, x1 = 0.1003 | – | 3.277 ± 0.07
293.15 K, x1 = 0.1991 | 874.27 ± 1.1 | 2.592 ± 0.055
293.15 K, x1 = 0.2995 | 859.61 ± 1 | 2.18 ± 0.047
293.15 K, x1 = 0.3996 | 847.35 ± 1 | 1.862 ± 0.04
293.15 K, x1 = 0.4993 | 836.86 ± 1 | 1.621 ± 0.035
293.15 K, x1 = 0.5997 | 827.69 ± 1 | –
293.15 K, x1 = 0.619 | – | 1.406 ± 0.03
293.15 K, x1 = 0.7011 | 819.71 ± 0.99 | 1.288 ± 0.028
293.15 K, x1 = 0.7967 | 812.9 ± 0.98 | 1.192 ± 0.026
293.15 K, x1 = 0.9026 | 806.51 ± 0.98 | 1.115 ± 0.024
293.15 K, x1 = 1 | 802.14 ± 0.97 | 1.093 ± 0.023
298.15 K, x1 = 0.0996 | 887.68 ± 1.1 | –
298.15 K, x1 = 0.1003 | – | 2.876 ± 0.061
298.15 K, x1 = 0.1991 | 870.17 ± 1.1 | 2.286 ± 0.049
298.15 K, x1 = 0.2995 | 855.52 ± 1 | 1.937 ± 0.041
298.15 K, x1 = 0.3996 | 843.25 ± 1 | 1.668 ± 0.036
298.15 K, x1 = 0.4993 | 832.77 ± 1 | 1.463 ± 0.031
298.15 K, x1 = 0.5997 | 823.61 ± 1 | –
298.15 K, x1 = 0.619 | – | 1.281 ± 0.027
298.15 K, x1 = 0.7011 | 815.65 ± 0.99 | 1.18 ± 0.025
298.15 K, x1 = 0.7967 | 808.85 ± 0.98 | 1.099 ± 0.024
298.15 K, x1 = 0.9026 | 802.52 ± 0.97 | 1.033 ± 0.022
298.15 K, x1 = 1 | 798.24 ± 0.97 | 1.016 ± 0.022
303.15 K, x1 = 0.0996 | 883.58 ± 1.1 | –
303.15 K, x1 = 0.1003 | – | 2.523 ± 0.054
303.15 K, x1 = 0.1991 | 866.05 ± 1.1 | 2.028 ± 0.043
303.15 K, x1 = 0.2995 | 851.39 ± 1 | 1.729 ± 0.037
303.15 K, x1 = 0.3996 | 839.12 ± 1 | 1.499 ± 0.032
303.15 K, x1 = 0.4993 | 828.64 ± 1 | 1.325 ± 0.028
303.15 K, x1 = 0.5997 | 819.5 ± 0.99 | –
303.15 K, x1 = 0.619 | – | 1.17 ± 0.025
303.15 K, x1 = 0.7011 | 811.56 ± 0.98 | 1.085 ± 0.023
303.15 K, x1 = 0.7967 | 804.8 ± 0.98 | 1.015 ± 0.022
303.15 K, x1 = 0.9026 | 798.52 ± 0.97 | 0.958 ± 0.021
303.15 K, x1 = 1 | 794.34 ± 0.96 | 0.947 ± 0.02
308.15 K, x1 = 0.0996 | 879.43 ± 1.1 | –
308.15 K, x1 = 0.1003 | – | 2.227 ± 0.048
308.15 K, x1 = 0.1991 | 861.89 ± 1 | 1.807 ± 0.039
308.15 K, x1 = 0.2995 | 847.23 ± 1 | 1.551 ± 0.033
308.15 K, x1 = 0.3996 | 834.96 ± 1 | 1.356 ± 0.029
308.15 K, x1 = 0.4993 | 824.49 ± 1 | 1.207 ± 0.026
308.15 K, x1 = 0.5997 | 815.37 ± 0.99 | –
308.15 K, x1 = 0.619 | – | 1.075 ± 0.023
308.15 K, x1 = 0.7011 | 807.46 ± 0.98 | 1.001 ± 0.021
308.15 K, x1 = 0.7967 | 800.75 ± 0.97 | 0.941 ± 0.02
308.15 K, x1 = 0.9026 | 794.49 ± 0.96 | 0.893 ± 0.019
308.15 K, x1 = 1 | 790.43 ± 0.96 | 0.886 ± 0.019
313.15 K, x1 = 0.0996 | 875.25 ± 1.1 | –
313.15 K, x1 = 0.1003 | – | 1.912 ± 0.041
313.15 K, x1 = 0.1991 | 857.7 ± 1 | 1.617 ± 0.035
313.15 K, x1 = 0.2995 | 843.04 ± 1 | 1.399 ± 0.03
313.15 K, x1 = 0.3996 | 830.77 ± 1 | 1.231 ± 0.026
313.15 K, x1 = 0.4993 | 820.31 ± 0.99 | 1.103 ± 0.024
313.15 K, x1 = 0.5997 | 811.21 ± 0.98 | –
313.15 K, x1 = 0.619 | – | 0.99 ± 0.021
313.15 K, x1 = 0.7011 | 803.33 ± 0.97 | 0.927 ± 0.02
313.15 K, x1 = 0.7967 | 796.66 ± 0.97 | 0.876 ± 0.019
313.15 K, x1 = 0.9026 | 790.46 ± 0.96 | 0.834 ± 0.018
313.15 K, x1 = 1 | 786.51 ± 0.95 | 0.831 ± 0.018
318.15 K, x1 = 0.0996 | 871.02 ± 1.1 | –
318.15 K, x1 = 0.1003 | – | 1.706 ± 0.036
318.15 K, x1 = 0.1991 | 853.46 ± 1 | 1.454 ± 0.031
318.15 K, x1 = 0.2995 | 838.79 ± 1 | 1.266 ± 0.027
318.15 K, x1 = 0.3996 | 826.54 ± 1 | 1.121 ± 0.024
318.15 K, x1 = 0.4993 | 816.09 ± 0.99 | 1.012 ± 0.022
318.15 K, x1 = 0.5997 | 807.02 ± 0.98 | –
318.15 K, x1 = 0.619 | – | 0.916 ± 0.02
318.15 K, x1 = 0.7011 | 799.17 ± 0.97 | 0.861 ± 0.018
318.15 K, x1 = 0.7967 | 792.54 ± 0.96 | 0.817 ± 0.018
318.15 K, x1 = 0.9026 | 786.41 ± 0.95 | 0.782 ± 0.017
318.15 K, x1 = 1 | 782.59 ± 0.95 | 0.782 ± 0.017
323.15 K, x1 = 0.0996 | 866.78 ± 1.1 | –
323.15 K, x1 = 0.1003 | – | 1.525 ± 0.033
323.15 K, x1 = 0.1991 | 849.2 ± 1 | 1.312 ± 0.028
323.15 K, x1 = 0.2995 | 834.53 ± 1 | 1.151 ± 0.025
323.15 K, x1 = 0.3996 | 822.28 ± 1 | 1.027 ± 0.022
323.15 K, x1 = 0.4993 | 811.84 ± 0.98 | 0.932 ± 0.02
323.15 K, x1 = 0.5997 | 802.8 ± 0.97 | –
323.15 K, x1 = 0.619 | – | 0.849 ± 0.018
323.15 K, x1 = 0.7011 | 794.99 ± 0.96 | 0.802 ± 0.017
323.15 K, x1 = 0.7967 | 788.4 ± 0.96 | 0.764 ± 0.016
323.15 K, x1 = 0.9026 | 782.33 ± 0.95 | 0.735 ± 0.016
323.15 K, x1 = 1 | 778.66 ± 0.95 | 0.738 ± 0.016
328.15 K, x1 = 0.0996 | 862.47 ± 1 | –
328.15 K, x1 = 0.1003 | – | 1.372 ± 0.029
328.15 K, x1 = 0.1991 | 844.88 ± 1 | 1.189 ± 0.025
328.15 K, x1 = 0.2995 | 830.2 ± 1 | 1.05 ± 0.022
328.15 K, x1 = 0.3996 | 817.96 ± 0.99 | 0.943 ± 0.02
328.15 K, x1 = 0.4993 | 807.55 ± 0.98 | 0.861 ± 0.018
328.15 K, x1 = 0.5997 | 798.54 ± 0.97 | –
328.15 K, x1 = 0.619 | – | 0.791 ± 0.017
328.15 K, x1 = 0.7011 | 790.77 ± 0.96 | 0.75 ± 0.016
328.15 K, x1 = 0.7967 | 784.24 ± 0.95 | 0.717 ± 0.015
328.15 K, x1 = 0.9026 | 778.25 ± 0.95 | 0.692 ± 0.015
328.15 K, x1 = 1 | 774.72 ± 0.94 | 0.698 ± 0.015
333.15 K, x1 = 0.0996 | 858.1 ± 1 | –
333.15 K, x1 = 0.1003 | – | 1.239 ± 0.026
333.15 K, x1 = 0.1991 | 840.5 ± 1 | 1.082 ± 0.023
333.15 K, x1 = 0.2995 | 825.83 ± 1 | 0.961 ± 0.021
333.15 K, x1 = 0.3996 | 813.6 ± 0.99 | 0.869 ± 0.019
333.15 K, x1 = 0.4993 | 803.22 ± 0.97 | 0.799 ± 0.017
333.15 K, x1 = 0.5997 | 794.24 ± 0.96 | –
333.15 K, x1 = 0.619 | – | 0.738 ± 0.016
333.15 K, x1 = 0.7011 | 786.52 ± 0.95 | 0.702 ± 0.015
333.15 K, x1 = 0.7967 | 780.04 ± 0.95 | 0.674 ± 0.014
333.15 K, x1 = 0.9026 | 774.14 ± 0.94 | 0.654 ± 0.014
333.15 K, x1 = 1 | 770.77 ± 0.94 | 0.661 ± 0.014
338.15 K, x1 = 0.0996 | 853.67 ± 1 | –
338.15 K, x1 = 0.1003 | – | 1.124 ± 0.024
338.15 K, x1 = 0.1991 | 836.06 ± 1 | 0.988 ± 0.021
338.15 K, x1 = 0.2995 | 821.41 ± 0.99 | 0.883 ± 0.019
338.15 K, x1 = 0.3996 | 809.2 ± 0.98 | 0.804 ± 0.017
338.15 K, x1 = 0.4993 | 798.85 ± 0.97 | 0.743 ± 0.016
338.15 K, x1 = 0.5997 | 789.91 ± 0.96 | –
338.15 K, x1 = 0.619 | – | 0.69 ± 0.015
338.15 K, x1 = 0.7011 | 782.24 ± 0.95 | 0.66 ± 0.014
338.15 K, x1 = 0.7967 | 775.82 ± 0.94 | 0.636 ± 0.014
338.15 K, x1 = 0.9026 | 770.01 ± 0.94 | 0.619 ± 0.013
338.15 K, x1 = 1 | 766.81 ± 0.93 | 0.628 ± 0.013
343.15 K, x1 = 0.0996 | 849.17 ± 1 | –
343.15 K, x1 = 0.1003 | – | 1.023 ± 0.022
343.15 K, x1 = 0.1991 | 831.57 ± 1 | 0.905 ± 0.019
343.15 K, x1 = 0.2995 | 816.93 ± 0.99 | 0.815 ± 0.017
343.15 K, x1 = 0.3996 | 804.75 ± 0.97 | 0.746 ± 0.016
343.15 K, x1 = 0.4993 | 794.44 ± 0.96 | 0.693 ± 0.015
343.15 K, x1 = 0.5997 | 785.54 ± 0.95 | –
343.15 K, x1 = 0.619 | – | 0.648 ± 0.014
343.15 K, x1 = 0.7011 | 777.93 ± 0.94 | 0.622 ± 0.013
343.15 K, x1 = 0.7967 | 771.58 ± 0.94 | 0.601 ± 0.013
343.15 K, x1 = 0.9026 | 765.88 ± 0.93 | 0.587 ± 0.013
343.15 K, x1 = 1 | 762.84 ± 0.93 | 0.598 ± 0.013
